# Experimental data published in BindingDB's records for doi:10.1016/0024-3205(83)90740-3 (University of Toronto, 1983).
# “And” between values parts separate entries of the source, which are not always exact repeats. Equal entries are not always repeated.
# Target: 5-hydroxytryptamine receptor 2A (Rattus norvegicus, UniProt P14842)
# Sequence (P14842 whole entry): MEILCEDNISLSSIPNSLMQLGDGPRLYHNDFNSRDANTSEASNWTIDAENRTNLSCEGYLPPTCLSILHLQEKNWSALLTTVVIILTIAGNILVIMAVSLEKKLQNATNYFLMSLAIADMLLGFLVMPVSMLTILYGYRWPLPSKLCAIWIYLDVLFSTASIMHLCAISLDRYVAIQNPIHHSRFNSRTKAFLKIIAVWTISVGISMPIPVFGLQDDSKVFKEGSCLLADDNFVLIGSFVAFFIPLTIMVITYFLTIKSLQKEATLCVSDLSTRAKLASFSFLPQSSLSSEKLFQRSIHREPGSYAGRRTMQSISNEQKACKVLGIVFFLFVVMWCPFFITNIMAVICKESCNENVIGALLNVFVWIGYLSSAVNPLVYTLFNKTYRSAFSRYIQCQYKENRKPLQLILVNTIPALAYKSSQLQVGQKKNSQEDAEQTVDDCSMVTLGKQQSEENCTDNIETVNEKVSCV
row,Structure (SMILES),Ki
1,NCCc1c[nH]c2ccccc12 [1H-indole-3-ethanamine],2930 nM and 1680 nM and 538 nM
2,c1ccc2nc(N3CCNCC3)ccc2c1 [2-Piperazin-1-yl-quinoline (Quipazine)],575 nM and 226 nM and 100 nM
3,CN(C)CCCSc1ccccc1NC(=O)/C=C/c1ccccc1 [CINANSERIN],10.1 nM and 5.45 nM and 4.45 nM
